One data set has as its system THP1 cells. As to the kind of experiment: AML xenograft survival model. It is filed as in vivo, BALB/c Rag-2/JAK3 double-deficient (BRJ) mice. The settings on record: Figure 7B, HP-β-CyD 2086.5 mg/kg i.p. twice a day, FA-HP-β-CyD 249 mg/kg i.p. twice a day, Ara-C 100 mg/kg i.p., 20 days, n = 6. Here is the method: (§1) BALB/c Rag-2/JAK3 double-deficient (BRJ) mice were housed in a specific pathogen-free barrier facility and used for the xenograft transplantation experiments. All animal experiments were approved by the Institutional Review Board of Saga University and conducted in accordance with the institutional guidelines of animal care of Saga University.
(§2) HL-60 cells or THP-1 cells were injected intravenously into BRJ mice. After 72 h, mice were injected intraperitoneally with 200 μL of vehicle, FA-HP-β-CyD (15 mM, 249 mg/kg), or HP-β-CyD (150 mM, 2086.5 mg/kg) for 20 consecutive days, and survival was monitored daily. Ara-C (100 mg/kg) was injected intraperitoneally for 5 consecutive days from 72 h after transplantation. Venetoclax (25 mg/kg) was orally administered for 20 consecutive days from 72 h after transplantation. Chimerism of human leukemic cells in the BM was determined by flow cytometry after double staining with FITC-conjugated anti-human CD45 (BD Bioscience) and PE/Cy7-conjugated anti-mouse CD45 (BioLegend) antibodies. All surgery was performed under sodium pentobarbital anesthesia to minimize pain. Mice were euthanized with ether when they became moribund or were unable to obtain food or water, as recommended by Saga University institutional guidelines. Survival data were analyzed using a log-rank nonparametric test and presented as Kaplan–Meier survival curves (n = 6 for each group).

The next data set concerns HL-60 cells. As to the kind of experiment: AML xenograft survival model. It is filed as in vivo, BALB/c Rag-2/JAK3 double-deficient (BRJ) mice. The following applies: HL-60 xenograft, HP-β-CyD 2086.5 mg/kg i.p. twice a day, FA-HP-β-CyD 249 mg/kg i.p. twice a day, 20 days, n = 6. Here is the method: as §1, §2
Data set [1] deals with normal human bone marrow CD34-positive progenitor cells. The data set is described as follows: methylcellulose colony formation assay. The following applies: 10 mM HP-β-CyD, 1 mM FA-HP-β-CyD, 1 week of culture.
Excerpt: Human bone marrow CD34 positive cells were purchased from LONZA (Bazel, Switzerland). […] After 1 week of culture, the number of colonies was counted using an inverted microscope. Data represent the mean number of colonies ± SEM (n = 3).
In data set [2] the test system is AML cell lines. As to the kind of experiment: trypan blue dye exclusion, cell viability. It is filed as cell-based, human. The settings on record: 72 h; FA-HP-β-CyD up to 1 mM, HP-β-CyD up to 10 mM. Here is the method: The trypan blue dye exclusion method was used to evaluate cell viability. Cells (HL-60, THP1, SKM1 and Kasumi1 cells) were seeded in flat-bottomed 96-well plates at a density of 1 × 10^4 cells in 100 µL medium per well and incubated with FA-HP-β-CyD (0, 0,1, 0.25, 0.5, 0.75, 1 mM) or HP-β-CyD (0, 1, 2.5, 5, 10 mM) for 72 h. Then, viable cells were counted. Cell proliferation was evaluated by a modified MTT assay using Cell Counting Kit-8 (Dojindo Molecular Technologies, Kumamoto, Japan), as previously described. AML cells were cultured in 96-well plates at a density of 1 × 10^4 cells in 100 µL medium per well and incubated with FA-HP-β-CyD or HP-β-CyD for 72 h. […] This method is capable of quantifying synergistic (CI < 1) and antagonistic (CI > 1) effects at different dose and effect levels.

In data set [3] the test system is AML cell lines. As to the kind of experiment: Annexin V and PI staining, statements over all AML cell lines. It is filed as cell-based, human.
Description: PI and Annexin V (BD Biosciences, San Jose, CA, USA) staining was performed to assess apoptosis, as previously described [53]. Cells were filtered through nylon mesh and assessed using a FACSVerse flow cytometer (BD Biosciences). Data were analyzed using FlowJo software 10.8.2 (Tree Star, Inc., Ashland, OR, USA).
In data set [4] the test system is THP1. As to the kind of experiment: cell viability with autophagy inhibitors (Cell Counting Kit-8). It is filed as cell-based, human. The settings on record: 1 mM FA-HP-β-CyD or 10 mM HP-β-CyD, chloroquine 20 μM, LY294002 50 μM, bafilomycin A1 1 nM. The procedure:
(§3) HL-60 and THP1 cells (2 × 10^5 cells in 100 µL of RPMI-1640 medium per well) were seeded in flat-bottomed 96-well plates (Greiner Labortechnik, Hamburg, Germany) and treated with both 1 mM of FA-HP-β-CyD and 10 mM of HP-β-CyD at 37 °C for 2 h. The cells were then pretreated for 24 h with the autophagy inhibitors chloroquine (20 µM), LY294002 (50 μM; Fujifilm Wako Pure Chemicals Co., Ltd., Osaka, Japan), or bafilomycin A1 (1 nM; Funakoshi, Tokyo, Japan). Cell proliferation was assessed using Cell Counting Kit-8.
For orientation: Tetrazolium assays rely on reduction of a dye to a coloured formazan, in cell work by metabolically active cells.

The subject of data set [5] is HL-60. The data set is described as above. It is filed as cell-based, human. The following applies: 1 mM FA-HP-β-CyD or 10 mM HP-β-CyD, chloroquine 20 μM, LY294002 50 μM, bafilomycin A1 1 nM. Here is the method:
as §3

Data set [6] concerns THP1. As to the kind of experiment: cell cycle analysis (PI, flow cytometry). It is filed as cell-based, human. The settings on record: THP1, 24 h. Here is the method:
(§4) Cell cycle analyses of AML cell lines (HL-60, THP1, SKM1, and Kasumi1 cells) were performed as described previously. In brief, 1 × 10^6 cells were treated with the indicated concentrations of CyDs. After 24 h of CyD treatment, cells were collected and fixed with 70% ethanol. Cells were then incubated at room temperature for 30 min with 0.1% Triton X-100/0.5% RNase A and stained with 50 μg/mL PI (BD Biosciences, San Jose, CA, USA). Cellular DNA content was analyzed by flow cytometry, and cell cycle profiles were determined in a FACS CantoII flow cytometer with CellQuest software (version 1.0.6, BD Biosciences).

Data set [7] concerns HL-60. The data set is described as follows: cell cycle analysis (PI, flow cytometry). It is filed as cell-based, human. The following applies: HL-60, 24 h. Here is the method: as §4
A further data set has as its system Kasumi1. The data set is described as follows: cell cycle analysis (PI, flow cytometry). It is filed as cell-based, human. The following applies: Kasumi1, 24 h. Here is the method: as §4
The subject of a further data set is SKM1. As to the kind of experiment: cell cycle analysis (PI, flow cytometry). It is filed as cell-based, human. The settings on record: SKM1, before and after exposure. Here is the method:
as §4
(In general: In flow cytometry, cells or beads pass a laser one at a time.)

With `CC(O)COC[C@H]1O[C@@H]2O[C@H]3[C@H](O)[C@@H](O)[C@@H](O[C@H]4[C@H](O)[C@@H](O)[C@@H](O[C@H]5[C@H](O)[C@@H](O)[C@@H](O[C@H]6[C@H](O)[C@@H](O)[C@@H](O[C@H]7[C@H](O)[C@@H](O)[C@@H](O[C@H]8[C@H](O)[C@@H](O)[C@@H](O[C@H]1[C@H](O)[C@H]2O)O[C@@H]8COCC(C)O)O[C@@H]7COCC(C)O)O[C@@H]6COCC(C)O)O[C@@H]5COCC(C)O)O[C@@H]4COCC(C)O)O[C@@H]3COCC(C)O` (stereo partly drawn) [HP-β-CyD, 2-Hydroxypropyl-β-cyclodextrin], the “Median Survival Time” value was found to be 49.5 days in the data set with THP1 cells; 38 days in the data set on HL-60 cells (Figure 7A, Ara-C 100 mg/kg i.p.); 35 days in the data set with HL-60 cells (Figure 7C, Venetoclax 25 mg/kg oral gavage daily). Further, in [1], the colony formation result is “reduced colony numbers”. Also, the “cell viability (trypan blue)” value in the data set with AML cell lines [2] is given as “reduced the cell viability of the AML cell lines in a dose-dependent manner”. The “mode of cell death at high concentration” value with AML cell lines [3] (15 mM HP-β-CyD) was “appeared to undergo necrosis”. Moreover, the apoptosis induction result in the data set on AML cell lines [3] (four AML cell lines, 72 h) is reported as “underwent apoptosis”. Besides, the “viability in the presence of autophagy inhibitors vs CyD alone” value with THP1 [4] and in the data set on HL-60 [5] was “not affected by the presence or absence of autophagy inhibitors” throughout. Besides, the “effect on cell cycle status” value was “dose-dependent increase in the percentage of cells in G2/M phase” in the data set with THP1 [6], “dose-dependent increase in the percentage of cells in G2/M phase” in the data set on HL-60 [7], “dose-dependent increase in the percentage of cells in G2/M phase” in the data set on Kasumi1 and “no change in cell cycle” in the data set on SKM1.

The record behind these values is PMC10706821, “Folate-Appended Hydroxypropyl-β-Cyclodextrin Induces Autophagic Cell Death in Acute Myeloid Leukemia Cells” (International Journal of Molecular Sciences, 2023).
